Test [1] deals with T1, VR1eGFP (Rattus norvegicus, UniProt O35433).
T1 construct: expressed in transfected cells; host or cells: Cos7 and HEK293 cells, transient transfection
The format is cell-based.

A further test concerns the target T2, eGFP- and e-tagged VR1 (Rattus norvegicus, UniProt O35433).
T2 construct: expressed in transfected cells; host or cells: Cos7 cells
In kind it is binding.

In test [2] the target is T3, VR1ε (C-terminal epsilon epitope-tagged vanilloid 1 receptor) (Rattus norvegicus, UniProt O35433).
T3 construct: expressed in transfected cells; host or cells: NIH 3T3 cells, G418-selected colony A5, pMTH-VR1ε plasmid
The format is cell-based.

On the set-up of test [3]: species or system Sprague Dawley rats. The following applies: rat, in vivo.
Test [4] relates to C-fiber neurons of the trigeminal ganglion. Set-up: species or system Sprague Dawley rats. The following applies: rat, in vivo.
Test [5] deals with trigeminal ganglion. Set-up: species or system Sprague Dawley rats. The following applies: rat, in vivo.
For test [6], the target named is T1, VR1eGFP. In kind it is cell-based. Conditions: 1 nM.
The next test has as its system VR1eGFP-expressing cells. In kind it is cell-based.
The next test deals with dorsal root ganglion. Set-up: species or system patient. The following applies: human, in vivo.
On the set-up of test [7]: species or system Sprague Dawley rats. The following applies: rat, in vivo. The source holds these as a separate data set.
For test [8], the system named is trigeminal ganglion. The format is in vivo, Sprague Dawley rats.
The conditions of test [9]: rat, in vivo, cited from earlier work.
The target in test [10] is T1, VR1eGFP. As to the kind of experiment: cell-based. Conditions: N=3; read-out: ED50 of induced Ca2+ uptake.

The structures appear in SMILES notation. Read-outs that look alike come from different tables or passages of the source.

T1 sequence (O35433 whole entry): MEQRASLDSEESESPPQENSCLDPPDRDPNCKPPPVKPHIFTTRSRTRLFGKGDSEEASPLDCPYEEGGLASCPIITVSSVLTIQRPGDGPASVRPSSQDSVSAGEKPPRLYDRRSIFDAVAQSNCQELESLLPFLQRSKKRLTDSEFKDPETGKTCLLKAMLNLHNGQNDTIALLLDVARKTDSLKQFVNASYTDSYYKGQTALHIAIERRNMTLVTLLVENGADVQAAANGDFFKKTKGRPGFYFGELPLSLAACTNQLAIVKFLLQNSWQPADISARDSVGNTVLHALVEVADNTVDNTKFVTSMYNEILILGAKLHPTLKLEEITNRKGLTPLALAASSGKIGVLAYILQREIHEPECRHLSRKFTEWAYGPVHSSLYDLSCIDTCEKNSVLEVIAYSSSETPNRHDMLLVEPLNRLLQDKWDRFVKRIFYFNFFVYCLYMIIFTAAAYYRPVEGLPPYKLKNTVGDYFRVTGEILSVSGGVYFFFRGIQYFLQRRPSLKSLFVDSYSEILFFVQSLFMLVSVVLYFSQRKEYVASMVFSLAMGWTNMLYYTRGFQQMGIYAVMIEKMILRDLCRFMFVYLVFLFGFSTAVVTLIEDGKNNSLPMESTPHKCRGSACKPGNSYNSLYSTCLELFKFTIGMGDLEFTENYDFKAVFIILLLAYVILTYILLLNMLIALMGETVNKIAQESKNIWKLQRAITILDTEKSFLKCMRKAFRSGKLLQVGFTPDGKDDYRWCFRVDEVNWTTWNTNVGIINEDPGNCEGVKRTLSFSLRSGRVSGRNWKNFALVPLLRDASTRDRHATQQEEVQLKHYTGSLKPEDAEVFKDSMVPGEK
T3 sequence (O35433 whole entry): as above
T2 sequence (O35433 whole entry): as above

Regarding `Oc1cc2c(cc1O)CN(C(=S)NCCc1ccc(Cl)cc1)CCC2` [capsazepine], the “effect on VR1eGFP-mediated current” value at VR1eGFP [1] was “attenuated”. Further, the “inhibition of [3H]RTX binding” value at eGFP- and e-tagged VR1 is reported as “almost completely inhibited”.
In the case of `C=C(C)[C@]12C[C@@H](C)[C@@]34O[C@](Cc5ccccc5)(O[C@@H]1[C@@H]3C=C(COC(=O)Cc1ccc(O)c(OC)c1)C[C@]1(O)C(=O)C(C)=C[C@@H]41)O2` [RTX, Resiniferatoxin], in test [2], the “45Ca2+-uptake above the base line of non-transfected NIH3T3 cells” value is above 50 fold. For the same compound, the mechanical pinch sensitivity entry in test [3] is recorded as “No attenuation”. The “fate of CGRP-stained cells in the injected ganglion” value in [4] is given as “killed”. In addition, on VR1eGFP [1], the “currents and capacitance change in non-transfected cells” value was “neither evoked currents nor induced a change in capacitance”; the “loss of plasma membrane” value is given as “about 600 μm^2”; the receptor desensitization entry is recorded as “complete desensitization”. For the same compound, on VR1eGFP [1] (125 pM), the “drop of membrane capacitance of VR1eGFP-transfected cells” value turned out to be 6±2.5 pF. The plasma extravasation result in the test with trigeminal ganglion [5] was “dramatic blockade”. At VR1eGFP [6], the “peak [Ca2+]i” value stood at 500 nM and the “time to elevation of [Ca2+]i” value was at most 10 s. Further, in the test on VR1eGFP-expressing cells, the “ER, plasma membrane and mitochondria morphology” value is given as “dramatic fragmentation of the ER”; the “nuclear membrane fragmentation at lower doses” value is “slower nuclear membrane fragmentation”. Further, in the test with VR1eGFP-expressing cells (1 nM), the mitochondrial reaction result is reported as “mitochondria reacted rapidly” and the “time to bursting of the plasma membrane” value is “about 45 minutes”. In addition, the “symptoms of chronic pain” value with dorsal root ganglion is listed as “reduction of the symptoms of chronic pain”. This compound returned a paw withdrawal latency in [7] of 18 ± 1.2 s. In addition, in the test with trigeminal ganglion [8] (n=4), the “eye wipes in the first minute” value turned out to be 7±3 wipes. In the test with trigeminal ganglion [8] (rat, in vivo), the “eye wipes in the first minute” value was “no eye wipes”. For the same compound, in test [9] (sc), the “time without restoration of pain sensitivity (thermal analgesia)” value is recorded as “over 7 days”. Also, the EC50 on VR1eGFP [10] came to 0.1 ± 0.05 nM.
Turning to `COc1cc(CNC(=O)CCCC/C=C/C(C)C)ccc1O` [capsaicin], the “current induced in voltage-clamped VR1eGFP cells” value at VR1eGFP [1] is recorded as “induced a large inward current”. For the same compound, in the test on VR1eGFP-expressing cells (1 uM), the mitochondrial reaction entry was “mitochondria reacted rapidly”. Besides, the thermal analgesia entry in [9] was “No thermal analgesia”.

Values taken from patent US9827223B2 (priority 2001, dated 2017).
